{
  "source": "paper PMC6822764",
  "about": "“MitoToxy assay: A novel cell-based method for the assessment of metabolic toxicity in a multiwell plate format using a lactate FRET nanosensor, Laconic” (PLoS ONE, 2019)",
  "key": {"[1]": {"system": "MDA-MB-231 cells stably expressing the FRET lactate indicator Laconic (MitoTox Reporter)", "assay": "MitoToxy assay: toxicity-induced lactate accumulation in MitoTox Reporter cells, 96-well plate reader, with 50 μM pCMBS", "format": "cell-based", "conditions": "read-out: IC50 (toxicity-induced lactate accumulation, MitoToxy)", "protocol": "(§1) MitoTox reporter cell line was cultured in Leibowitz media (Gibco) supplemented with 10% of fetal bovine serum (FBS) at 37°C at atmospheric CO2 levels in a 100 mm petri dish. Once cells reached 100% confluency, they were trypsinized using 5% trypsin (Gibco) and washed in PBS. Viability was determine using trypan blue staining and 10,000 cells were seeded into each well of a 96 well plate. Experiments in 96 well format were performed once cells reached 100% confluency after 6 days, during the incubation media was not replaced. All the plates with signal-to-noise ration below 1.3 for monomeric Teal Fluorescent Protein (mTFP) and Venus channels were discarded. Background signal was determined with KRH buffer without cells. Experiments consisted in washing out the culture media using KRH HEPES buffer containing (mM) 136 NaCl, 3 KCl, 1.25 CaCl2, 1.25 MgCl2, 10 HEPES/Tris and pH 7.2 at 37°C with 300 mOsm. Then 200 μl of KRH HEPES buffer without any carbon sources was added to each well and the baseline was measured (RMIN), then 100 μl of buffer was replaced with mitochondrial toxicant/controls and signal was measured to obtain a stimulated response (RMAX). In experiments were pCMBS was used to block lactate exit, the inhibitor was added simultaneously with the mitochondrial toxicants. Data was collected in triplicated after 5, 10, 30, and 60 minutes of incubation. All the experiments in 96 well plates were performed in an EnVision® multiplate reader (PerkinElmer). Each well was excited at 430 nm and the intensity of mTFP and Venus fluorescence emission were recorded at 485 nm and 528 nm, using a set of filters.\n(§2) Where R(mTFP/Venus) min corresponded to the minimal change of mTFP/Venus ratio during the single-cell experiments. Results in 96 well plates experiments were expressed by the ΔR%. This parameter was obtained from the difference between the RMAX and RMIN from the same well (before-after experiment) as follow: ΔR%=(R(mTFP/Venus)max−R(mTFP/Venus)min/R(mTFP/Venus)min)x100"}, "[2]": {"system": "primary culture of astrocytes from the mouse cortex expressing Laconic", "assay": "Single-cell lactate imaging (Laconic) in primary culture of cortical astrocytes", "format": "cell-based", "experimental": "Animals used for primary cultures were mixed F1 male mice (C57BL/6J × CBA/J), kept in an animal room under SPF conditions at a room temperature of 20 ± 2°C, in a 12/12-h light/dark cycle and with free access to water and food. Mixed cortical cultures of neuronal and glia cells (1 –to 3-day-old neonates) was cultured in Neurobasal medium (Gibco) supplemented with 5 mM glucose and B27. Cells were seeded on petri dishes and superfused with KRH HEPES pH 7.4. The lactate imaging experiments with single-cell resolution were performed using cultured astrocytes at 11–14 days post-dissection. Real time experiments were performed with KRH HEPES bathing solution containing (in mM) 136 NaCl, 3 KCl, 1.25 CaCl2, 1.25 MgCl2, 10 HEPES/Tris and pH 7.2 at 36°C with 300 mOsm, without carbon sources for mitochondrial toxicant experiments and 2 mM glucose and 1 mM lactate for Warburg index determination. Experiments were performed in upright Olympus FV1000 confocal microscope equipped with a 20X water-immersion objective (numerical aperture, 1.0) and a 440 nm solid-state laser.\nTo plot the data, we used a ratio between mTFP and Venus channels. This ratio is proportional to lactate levels, since its binding to the sensor produced a decrease in FRET efficiency. This ratio was expressed in two formulas described below: NormalizedΔR=R(mTFP/Venus)/R(mTFP/Venus)min\nWith the aim of testing if this observation occurs in general and if azide induced-lactate accumulation can be reproduced using another mitochondrial toxicant with a different molecular target, we performed single-cell experiments exposing primary culture of astrocytes from the mouse cortex expressing Laconic (Fig 1A) to different mitochondria inhibitors that block the ETC at different levels (Fig 1C). To take advantage of the maximal dynamic range of the lactate FRET sensor the baseline measurements were performed using buffer without carbon sources to force start the experiments with lactate levels below 100 μM.\nEach data point is from an average of ten cells from three independent experiments."}, "MitoTox reporter cells": {"system": "MitoTox reporter cells", "conditions": "32 μM rotenone, 16 μM antimycin, 5 mM azide, 80 μM oligomycin, 10 μM myxothiazol; 5, 10, 30, 60 minutes; 37°C", "protocol": "as §1, with “Experiments consisted in washing out the culture media using KRH HEPES buffer containing (mM) 136 NaCl, 3 KCl, 1.25 CaCl2, 1.25 MgCl2, 10 HEPES/Tris and pH 7.2 at 37°C with 300 mOsm.” left out, “In experiments were pCMBS was used to block lactate exit, the inhibitor was added simultaneously with the mitochondrial toxicants. Data was collected in triplicated after 5, 10, 30, and 60 minutes of incubation.” left out, “filters. […]” for “filters.”"}, "[3]": {"system": "MitoTox Reporter cells (MDA-MB-231 expressing Laconic)", "assay": "Pilot screening of 13 compounds with MitoTox Reporter cells, multiplate reader", "format": "cell-based", "conditions": "for ΔR% (lactate accumulation): average of 4 replicate wells, Fig 9 legend 30 minutes, 37°C", "protocol": "as §1, §2\nMultiple comparisons versus control groups (Holm-Sidak method), Overall significance level P < 0,05.\nThe capability of the assay to identify previously described toxic drugs was explored through a pilot screening assay. We selected 13 compounds from a variety of therapeutic classes to perform a pilot screening assay using MitoTox Reporter cells and a standard multiplate reader. […] To perform the assays, we prepared master stocks for each compound in 0.2% DMSO. Assays were performed with compounds at final concentrations of 1, 5, and 10 μM and the response of MitoTox Reporter cells were measured at 5, 10, 30, and 60 minutes. […] As a negative control we selected a compound with no reported side-effects."}, "[4]": {"system": "mitochondrial membrane potential (MMP)", "conditions": "treatment time 6 hours; ref Li et al., 2014 [50]; read-out: IC50, MMP; cited from earlier work"}, "HepG2 cells": {"system": "HepG2 cells", "design": "method as in PMID 22689143", "conditions": "Seahorse technology, read-out: Concentration required to change the OCR and ECAR by 50%; cited from earlier work"}, "ATP": {"system": "ATP", "conditions": "read-out: IC50, ATP depletion; cited from earlier work"}},
  "note": "Values joined by “and” are separate entries in the source; they are usually repeats but may differ in a detail not shown here. Equal values may be shown once.",
  "data": [
    {"smiles": "[N-]=[N+]=[N-].[Na+]", "note": "[azide]", "values": [
      {"measurement": "IC50", "setting": "[1]", "value": 1440, "unit": "µM"},
      {"measurement": "Cytosolic lactate accumulation in astrocytes", "setting": "[2]", "value": "induced an acute cytosolic lactate accumulation"},
      {"measurement": "Lactate accumulation (ΔR%) in 96-well plates without pCMBS", "setting": "MitoTox reporter cells", "value": "declined after 5 minutes"}
    ]},
    {"smiles": "Cc1c(C)c2c(c(C)c1O)CCC(C)(COc1ccc(CC3SC(=O)NC3=O)cc1)O2", "note": "(stereo not drawn) [troglitazone]", "values": [
      {"measurement": "ΔR% (lactate accumulation)", "setting": "[3]; 5 μM", "value": "The effect was also detected"},
      {"measurement": "ΔR% (lactate accumulation)", "setting": "[3]; 10 μM", "value": "over 14%"},
      {"measurement": "Concentration at which toxicity / mitochondrial effects were detected in the pilot screening", "setting": "[3]; tested at 1, 5 and 10 μM", "value": 5, "unit": "µM"},
      {"measurement": "IC50", "setting": "[4]", "value": 176, "unit": "µM"},
      {"measurement": "EC50", "setting": "HepG2 cells", "value": "> 100", "unit": "µM"},
      {"measurement": "IC50", "setting": "ATP", "value": "28 µM and 31.4 µM"}
    ]}
  ]
}
